From patent US12421222B2 (AUGUSTINE THERAPEUTICS, priority 2021, dated 2025)

Test system: acetylated tubulin (Lys40) in HeLa cells
Assay: Acetylated α-tubulin measurement in vitro (immunocytochemistry)
Assay type: cell-based
Settings: Homo sapiens, 6 hours incubation, acetylated tubulin (Lys40) by immunocytochemistry, read-out: IC50 (Tubulin deacetylation)
Protocol: HeLa cells were cultured in UltraCulture serum-free medium (Lonza) supplemented with 2 mM glutamine (Lonza). Assays were performed at 96-well or 384-well format, differences in assay protocols are detailed in Table 6. Cells per well were plated and incubated overnight at 37° C. overnight in a humidified atmosphere containing 5% CO2. Cell density and seeding volumes are detailed in Table 6. Compounds (dissolved in 100% DMSO) or DMSO (vehicle) were added manually by diluting them in culture medium at 10× final assay concentration and adding 10 μL to cells (96-well protocol). Alternatively, 50 nL compound was added directly to the cell culture using the Echo650 (Labcyte) (384-well protocol). In this assay, the final assay concentration of DMSO is 0.1%-0.4%. Trichostatin A (TSA) was used as a positive control. Cells were incubated with compounds at 37° C. in a humidified atmosphere containing 5% CO2 for 6 hours. Levels of acetylated tubulin (Lys40) were assessed by immunocytochemistry using target-specific antibodies. Cells were fixed with 4% PFA at RT as detailed in Table 6. After 2-3 wash steps with PBS, cells were permeabilized with 0.5% Triton in PBS at RT for 10 minutes followed by 1-2 washes with PBS. To avoid non-specific antibody staining, cells were blocked with 3% BSA in PBS at room temperature for 1 hour. […] Cells were washed 2-3 times with PBS and labelled for 1 h at RT with goat anti-mouse conjugated with Alexa 647 (Thermofisher) and goat anti-rabbit conjugated with Alexa 555 (Thermofisher) secondary antibodies, diluted in 1% BSA to a final concentration of 1:1000. Simultaneously, nuclei were stained with 1:10000-1:15000 Hoechst (Thermofisher). Incubation time and temperature of the primary antibodies are detailed in Table 6. Cells were washed 2-3 times with PBS and they were imaged with the Operetta CLS or Opera Phenix (PerkinElmer). Imaging is further detailed in Table 6. For imaging analysis, the Harmony analysis software (PerkinElmer) was used. Cytoplasmic (defined by total α-tubulin staining) intensities per well were used for α-tubulin (acetylated and total) quantification. Intensities were measured per cell and then averaged per well. Mean intensity levels of acetylated tubulin were normalized to the mean intensity levels of total tubulin. The changes in acetylated tubulin were normalized for each plate using GraphPad Prism software: tubulin acetylation in vehicle (DMSO)-treated cells were set to 0% while tubulin acetylation in TSA-treated cells were set to 100%. EC50 values were calculated using the log(inhibitor) vs. response—Variable slope (four parameters) nonlinear regression in GraphPad Prism software.

IC50 [nM] | SMILES
100 to 500 | O=C(CSc1nc(C(F)(F)F)nc2ncccc12)c1ccc(CNS(=O)(=O)CC(F)(F)F)s1 [Example 123, 2,2,2-trifluoro-N-((5-(2-((2-(trifluoromethyl)pyrido[2,3-d]pyrimidin-4-yl)thio)acetyl)thiophen-2-yl)methyl)ethane-1-sulfonamide]
1000 to 3330 | Cn1ncc2c(SCC(=O)c3ccc(CNC(=O)C4CC4)s3)ncnc21 [Example 31, N-((5-(2-((1-methyl-1H-pyrazolo[3,4-d]pyrimidin-4-yl)thio)acetyl)thiophen-2-yl)methyl)cyclopropanecarboxamide]
100 to 500 | O=C(CSc1nc(C(F)(F)F)nc2ccc(N3CCOCC3)cc12)c1ccc(CNC(=O)C2(O)CC2)s1 [Example 47, 1-hydroxy-N-((5-(2-((6-morpholino-2-(trifluoromethyl)quinazolin-4-yl)thio)acetyl)thiophen-2-yl)methyl)cyclopropane-1-carboxamide]
100 to 500 | O=C(CO)NCc1ccc(C(=O)CSc2nc3ncc(C(F)(F)F)cc3o2)s1 [Example 118, 2-hydroxy-N-((5-(2-((6-(trifluoromethyl)oxazolo[4,5-b]157yrrolid-2-yl)thio)acetyl)thiophen-2-yl)methyl)acetamide]
≤ 100 | Cc1nc(SCC(=O)c2ccc(CNC(=O)CO)s2)c2cc(N3CCC(F)(F)C3)ccc2n1 [Example 84, N-((5-(2-((6-(3,3-difluoropyrrolidin-1-yl)-2-methylquinazolin-4-yl)thio)acetyl)thiophen-2-yl)methyl)-2-hydroxyacetamide]
> 3330 | Cn1ncc2c(SCC(=O)c3ccc(CN4CCCC4=O)s3)ncnc21 [Example 25, 1-((5-(2-((1-methyl-1H-pyrazolo[3,4-d]pyrimidin-4-yl)thio)acetyl)thiophen-2-yl)methyl)pyrrolidin-2-one]
100 to 500 | CN(Cc1ccc(C(=O)CSc2nc(C(F)(F)F)nc3ncccc23)s1)C(=O)CO [Example 131, 2-hydroxy-N-methyl-N-((5-(2-((2-(trifluoromethyl)pyrido[2,3-d]pyrimidin-4-yl)thio)acetyl)thiophen-2-yl)methyl)acetamide]
100 to 500 | COc1ccc2nc(C)nc(SCC(=O)c3ccc(CNC(=O)C4CCCN4)s3)c2c1 (centres unmarked) [Example 184, N-((5-(2-((6-methoxy-2-methylquinazolin-4-yl)thio)acetyl)thiophen-2-yl)methyl)pyrrolidine-2-carboxamide]
100 to 500 | CC(NC(=O)CO)c1ccc(C(=O)CSc2nc3cnc(C(F)(F)F)cc3o2)s1 (stereo in doubt) [Example 129, (S)-2-hydroxy-N-(1-(5-(2-((6-(trifluoromethyl)oxazolo[4,5-c]pyridin-2-yl)thio)acetyl)thiophen-2-yl)ethyl)acetamide]
100 to 500 | Cc1nc(SCC(=O)c2ccc(CNC(=O)CO)s2)c2ccccc2n1 [Example 66, 2-hydroxy-N-((5-(2-((2-methylquinazolin-4-yl)thio)acetyl)thiophen-2-yl)methyl)acetamide]
≤ 100 | COc1ccc2nc(C)nc(SCC(=O)c3ccc(CNC(=O)CN)s3)c2c1 [Example 177, 2-amino-N-((5-(2-((6-methoxy-2-methylquinazolin-4-yl)thio)acetyl)thiophen-2-yl)methyl)acetamide]
100 to 500 | COc1ccc2nc(C)nc(SCC(=O)c3ccc(CNC(=O)N(C)C)s3)c2c1 [Example 189, 3-((5-(2-((6-methoxy-2-methylquinazolin-4-yl)thio)acetyl)thiophen-2-yl)methyl)-1,1-dimethylurea]
100 to 500 | O=C(CO)NCc1ccc(C(=O)CSc2nc(C(F)(F)F)nc3cc(C4CC4)nn23)s1 [Example 112, N-((5-(2-((7-cyclopropyl-2-(trifluoromethyl)pyrazolo[1,5-a][1,3,5]triazin-4-yl)thio)acetyl)thiophen-2-yl)methyl)-2-hydroxyacetamide]
100 to 500 | Cn1cc2c(SCC(=O)c3ccc(CNC(=O)C(C)(C)O)s3)nc(C(F)(F)F)nc2n1 [Example 48, 2-hydroxy-2-methyl-N-((5-(2-((2-methyl-6-(trifluoromethyl)-2H-pyrazolo[3,4-d]pyrimidin-4-yl)thio)acetyl)thiophen-2-yl)methyl)propanamide]
100 to 500 | COc1ccc2nc(C(F)(F)F)nc(SCC(=O)c3ccc(CNC(=O)C(C)(C)O)s3)c2c1 [Example 134, 2-hydroxy-N-((5-(2-((6-methoxy-2-(trifluoromethyl)quinazolin-4-yl)thio)acetyl)thiophen-2-yl)methyl)-2-methylpropanamide]
500 to 1000 | COc1ccc2nc(C)nc(SCC(=O)c3ccc(CNC(=O)C(F)(F)C(F)(F)F)s3)c2c1 [Example 40, 2,2,3,3,3-pentafluoro-N-((5-(2-((6-methoxy-2-methylquinazolin-4-yl)thio)acetyl)thiophen-2-yl)methyl)propanamide]
1000 to 3330 | Cc1nc(SCC(=O)c2ccc(CNC(=O)C(C)(C)C)s2)c2ccc(F)cc2n1 [Example 10, N-((5-(2-((7-fluoro-2-methylquinazolin-4-yl)thio)acetyl)thiophen-2-yl)methyl)pivalamide]

More lines, now with the values behind:

SMILES | IC50 [nM]
COc1cnc2nc(C)nc(SCC(=O)c3ccc(CN(C)C(=O)CO)s3)c2c1 [Example 162, 2-hydroxy-N-((5-(2-((6-methoxy-2-methylpyrido[2,3-d]pyrimidin-4-yl)thio)acetyl)thiophen-2-yl)methyl)-N-methylacetamide] | 100 to 500
COc1cccc2nc(C)nc(SCC(=O)c3ccc(CNC(=O)CO)s3)c12 [Example 143, 2-hydroxy-N-((5-(2-((5-methoxy-2-methylquinazolin-4-yl)thio)acetyl)thiophen-2-yl)methyl)acetamide] | 100 to 500
Cn1ncc2c(SCC(=O)c3ccc(CNC(=O)C(C)(C)C)s3)nc(C(F)(F)F)nc21 [Example 20, N-((5-(2-((1-methyl-6-(trifluoromethyl)-1H-pyrazolo[3,4-d]pyrimidin-4-yl)thio)acetyl)thiophen-2-yl)methyl)pivalamide] | 100 to 500
CCn1ncc2c(SCC(=O)c3ccc(CNC(=O)CO)s3)nc(C(F)(F)F)nc21 [Example 136, N-((5-(2-((1-ethyl-6-(trifluoromethyl)-1H-pyrazolo[3,4-d]pyrimidin-4-yl)thio)acetyl)thiophen-2-yl)methyl)-2-hydroxyacetamide] | 100 to 500
Cc1nc(SCC(=O)c2ccc(CNC(=O)CO)s2)c2cc(OC3CC3)ccc2n1 [Example 77, N-((5-(2-((6-cyclopropoxy-2-methylquinazolin-4-yl)thio)acetyl)thiophen-2-yl)methyl)-2-hydroxyacetamide] | 100 to 500
COc1ccc2nc(C)nc(SCC(=O)c3ccc(CCN4CCC(O)C4=O)s3)c2c1 (centres unmarked) [Example 115, 3-hydroxy-1-(2-(5-(2-((6-methoxy-2-methylquinazolin-4-yl)thio)acetyl)thiophen-2-yl)ethyl)pyrrolidin-2-one] | 500 to 1000
Cc1nc(SCC(=O)c2ccc(CNC(=O)CO)s2)c2c(F)c(Cl)ccc2n1 [Example 146, N-((5-(2-((6-chloro-5-fluoro-2-methylquinazolin-4-yl)thio)acetyl)thiophen-2-yl)methyl)-2-hydroxyacetamide] | 100 to 500
Cc1nc(SCC(=O)c2ccc(CNC(=O)CO)s2)c2cc(F)cnc2n1 [Example 124, N-((5-(2-((6-fluoro-2-methylpyrido[2,3-d]pyrimidin-4-yl)thio)acetyl)thiophen-2-yl)methyl)-2-hydroxyacetamide] | ≤ 100
O=C(CSc1nc(C(F)(F)F)nc2ncccc12)c1ccc(CN2CCCC2=O)s1 [Example 157, 1-((5-(2-((2-(trifluoromethyl)pyrido[2,3-d]pyrimidin-4-yl)thio)acetyl)thiophen-2-yl)methyl)pyrrolidin-2-one] | ≤ 100
Cc1nc(SCC(=O)c2ccc(CNC(=O)C(C)(C)C)s2)c2cccnc2n1 [Example 7, N-((5-(2-((2-methylpyrido[2,3-d]pyrimidin-4-yl)thio)acetyl)thiophen-2-yl)methyl)pivalamide] | 100 to 500
O=C(CSc1nc(C(F)(F)F)nc2ncccc12)c1ccc(CNC(=O)C2CC2(F)F)s1 (centres unmarked) [Example 114, 2,2-difluoro-N-((5-(2-((2-(trifluoromethyl)pyrido[2,3-d]pyrimidin-4-yl)thio)acetyl)thiophen-2-yl)methyl)cyclopropane-1-carboxamide] | ≤ 100
CCOc1cnc2nc(C)nc(SCC(=O)c3ccc(CNC(=O)CO)s3)c2c1 [Example 160, N-((5-(2-((6-ethoxy-2-methylpyrido[2,3-d]pyrimidin-4-yl)thio)acetyl)thiophen-2-yl)methyl)-2-hydroxyacetamide] | ≤ 100
